Data reported in PMC5218480 (PLoS ONE, 2017).

System: MV-4-11 cells
Assay: Gene expression microarray analysis (Affymetrix PrimeView) and GSEA
Format: cell-based, human
Set-up: RFU PODN (11730768_x_at) / Fold change /veh PODN (11730768_x_at) / RFU LINC00158 (11744669_a_at) / Fold change /veh LINC00158 (11744669_a_at) / RFU DUSP10 (11751237_a_at) / Fold change /veh DUSP10 (11751237_a_at) / RFU ID3 (11757404_x_at) / Fold change /veh ID3 (11757404_x_at) / RFU PLEKHG5 (11737974_s_at) / Fold change /veh PLEKHG5 (11737974_s_at) / RFU LRRC4B (11730491_at) / Fold change /veh LRRC4B (11730491_at) / RFU GIMAP4 (11747438_a_at) / Fold change /veh GIMAP4 (11747438_a_at) / RFU KRT8 (11758183_x_at) / Fold change /veh KRT8 (11758183_x_at) / RFU CNN1 (11734310_a_at) / Fold change /veh CNN1 (11734310_a_at) / RFU VPS37D (11726825_at) / Fold change /veh VPS37D (11726825_at) / RFU C10orf10 (11716522_x_at) / Fold change /veh C10orf10 (11716522_x_at) / RFU KIR2DL2 /// KIR2DL4 /// KIR2DL5A /// KIR2DL5B /// KIR2DS1 /// KIR2DS2 /// KIR2DS3 /// KIR2DS4 /// KIR3DL3 /// KIR3DL3 /// KIR3DS1 (11738374_at) / Fold change /veh KIR2DL2 /// KIR2DL4 /// KIR2DL5A /// KIR2DL5B /// KIR2DS1 /// KIR2DS2 /// KIR2DS3 /// KIR2DS4 /// KIR3DL3 /// KIR3DL3 /// KIR3DS1 (11738374_at) / RFU C1QL1 (11718748_at) / Fold change /veh C1QL1 (11718748_at) / RFU TMPRSS4 (11747572_a_at) / Fold change /veh TMPRSS4 (11747572_a_at) / RFU HAMP (11756126_x_at) / Fold change /veh HAMP (11756126_x_at) / RFU RNFT2 (11725882_a_at) / Fold change /veh RNFT2 (11725882_a_at) / RFU NR4A2 (11747474_a_at) / Fold change /veh NR4A2 (11747474_a_at) / RFU ABCC12 (11746883_a_at) / Fold change /veh ABCC12 (11746883_a_at) / RFU TMEM136 (11760407_x_at) / Fold change /veh TMEM136 (11760407_x_at) / RFU CLDN22 /// WWC2 (11732394_at) / Fold change /veh CLDN22 /// WWC2 (11732394_at) / RFU HLA-DPB1 (11760878_x_at) / Fold change /veh HLA-DPB1 (11760878_x_at) / RFU SPINT1 (11716480_a_at) / Fold change /veh SPINT1 (11716480_a_at) / RFU GAP43 (11754022_s_at) / Fold change /veh GAP43 (11754022_s_at) / RFU A4GNT (11735810_at) / Fold change /veh A4GNT (11735810_at) / RFU PRB3 (11715151_x_at) / Fold change /veh PRB3 (11715151_x_at) / RFU TUBB4B (11761932_at) / Fold change /veh TUBB4B (11761932_at) / RFU CAPN14 (11732068_a_at) / Fold change /veh CAPN14 (11732068_a_at) / RFU TMCC2 (11721928_a_at) / Fold change /veh TMCC2 (11721928_a_at) / RFU IRGQ (11745062_a_at) / Fold change /veh IRGQ (11745062_a_at) / RFU FAM174B (11720279_a_at) / Fold change /veh FAM174B (11720279_a_at) / RFU TMPRSS4 (11748680_a_at) / Fold change /veh TMPRSS4 (11748680_a_at) / RFU FAM212B (11763350_a_at) / Fold change /veh FAM212B (11763350_a_at) / RFU PLEKHG5 (11743358_a_at) / Fold change /veh PLEKHG5 (11743358_a_at) / RFU ZSCAN30 (11745921_a_at) / Fold change /veh ZSCAN30 (11745921_a_at) / RFU CMKLR1 (11741424_a_at) / Fold change /veh CMKLR1 (11741424_a_at) / RFU LOC101060620 /// MAPK8IP1 (11723275_at) / Fold change /veh LOC101060620 /// MAPK8IP1 (11723275_at) / RFU SPTSSB (11747773_x_at) / Fold change /veh SPTSSB (11747773_x_at) / RFU PRSS12 (11739890_at) / Fold change /veh PRSS12 (11739890_at) / RFU BIN1 (11741810_x_at) / Fold change /veh BIN1 (11741810_x_at) / RFU WNT11 (11732464_a_at) / Fold change /veh WNT11 (11732464_a_at) / RFU C10orf10 (11716521_a_at) / Fold change /veh C10orf10 (11716521_a_at) / RFU C5orf56 (11738089_at) / Fold change /veh C5orf56 (11738089_at) / RFU CYB561 (11721691_x_at) / Fold change /veh CYB561 (11721691_x_at) / RFU ANKRD19P (11752326_a_at) / Fold change /veh ANKRD19P (11752326_a_at) / RFU OR2T12 /// OR2T33 /// OR2T8 (11738714_s_at) / Fold change /veh OR2T12 /// OR2T33 /// OR2T8 (11738714_s_at) / RFU VCAN (11748164_a_at) / Fold change /veh VCAN (11748164_a_at) / RFU JSRP1 (11732532_at) / Fold change /veh JSRP1 (11732532_at) / RFU KRTAP10-11 (11738290_x_at) / Fold change /veh KRTAP10-11 (11738290_x_at) / RFU MYO3A (11730013_a_at) / Fold change /veh MYO3A (11730013_a_at) / RFU EBF3 (11725865_a_at) / Fold change /veh EBF3 (11725865_a_at) / RFU CAMK2N1 (11719241_x_at) / Fold change /veh CAMK2N1 (11719241_x_at) / RFU C5orf56 (11738088_a_at) / Fold change /veh C5orf56 (11738088_a_at) / RFU OLFML3 (11715873_a_at) / Fold change /veh OLFML3 (11715873_a_at) / RFU LOC100653217 /// NTM (11731650_a_at) / Fold change /veh LOC100653217 /// NTM (11731650_a_at) / RFU MAPK11 (11762145_a_at) / Fold change /veh MAPK11 (11762145_a_at) / RFU FIZ1 (11724087_x_at) / Fold change /veh FIZ1 (11724087_x_at) / RFU OASL (11726364_x_at) / Fold change /veh OASL (11726364_x_at) / RFU SOX15 (11748057_x_at) / Fold change /veh SOX15 (11748057_x_at) / RFU CD79A (11719716_a_at) / Fold change /veh CD79A (11719716_a_at) / RFU HIST1H1D (11736915_at) / Fold change /veh HIST1H1D (11736915_at) / RFU CASKIN2 (11723855_a_at) / Fold change /veh CASKIN2 (11723855_a_at) / RFU LOC730098 (11760151_x_at) / Fold change /veh LOC730098 (11760151_x_at) / RFU OR4N2 (11742367_at) / Fold change /veh OR4N2 (11742367_at) / RFU PRRT2 (11749266_a_at) / Fold change /veh PRRT2 (11749266_a_at) / RFU SNX32 (11753110_a_at) / Fold change /veh SNX32 (11753110_a_at) / RFU CDHR5 (11726645_a_at) / Fold change /veh CDHR5 (11726645_a_at) / RFU RCAN1 (11760418_a_at) / Fold change /veh RCAN1 (11760418_a_at) / RFU FAM167A (11723789_a_at) / Fold change /veh FAM167A (11723789_a_at) / RFU FAM26E (11764081_at) / Fold change /veh FAM26E (11764081_at) / RFU ISYNA1 (11749810_s_at) / Fold change /veh ISYNA1 (11749810_s_at) / RFU ACY1 (11761880_at) / Fold change /veh ACY1 (11761880_at) / RFU 11764098_at / Fold change /veh 11764098_at / RFU SAMD14 (11745864_x_at) / Fold change /veh SAMD14 (11745864_x_at) / RFU NPB (11741838_a_at) / Fold change /veh NPB (11741838_a_at) / RFU TMPRSS6 (11731388_a_at) / Fold change /veh TMPRSS6 (11731388_a_at) / RFU KRTAP10-2 (11738614_at) / Fold change /veh KRTAP10-2 (11738614_at) / RFU ARHGAP8 /// PRR5-ARHGAP8 (11727945_x_at) / Fold change /veh ARHGAP8 /// PRR5-ARHGAP8 (11727945_x_at) / RFU KRTAP5-7 /// NADSYN1 (11734609_at) / Fold change /veh KRTAP5-7 /// NADSYN1 (11734609_at) / RFU RASL12 (11751679_a_at) / Fold change /veh RASL12 (11751679_a_at) / RFU CDKN2B (11736163_a_at) / Fold change /veh CDKN2B (11736163_a_at) / RFU PRF1 (11729649_at) / Fold change /veh PRF1 (11729649_at) / RFU, ZNF638 /// ZNF638-IT1 / Fold change vs veh, ZNF638 /// ZNF638-IT1 / RFU, PANK3 / Fold change vs veh, PANK3 / RFU, SH3YL1 / Fold change vs veh, SH3YL1 / RFU, ZEB2 / Fold change vs veh, ZEB2 / RFU, NRIP1 / Fold change vs veh, NRIP1 / RFU, PTTG1IP / Fold change vs veh, PTTG1IP / RFU, CAPN2 / Fold change vs veh, CAPN2 / RFU, MED14 / Fold change vs veh, MED14 / RFU, SNORA58 / Fold change vs veh, SNORA58 / RFU, C1orf63 / Fold change vs veh, C1orf63 / RFU, LRRFIP1 / Fold change vs veh, LRRFIP1 / RFU, NDUFAF7 / Fold change vs veh, NDUFAF7 / RFU, SLC12A2 / Fold change vs veh, SLC12A2 / RFU, IBTK / Fold change vs veh, IBTK / RFU, ESF1 / Fold change vs veh, ESF1 / Fold change vs veh, TMEM50B / RFU, TAOK1 / Fold change vs veh, TAOK1 / RFU, ACBD3 / Fold change vs veh, ACBD3 / RFU, TMA16 / Fold change vs veh, TMA16 / RFU, RWDD3 / Fold change vs veh, RWDD3 / RFU, BCAT1 / Fold change vs veh, BCAT1 / RFU, EDEM3 / Fold change vs veh, EDEM3 / RFU, TMEM33 / Fold change vs veh, TMEM33 / RFU, WDR75 / Fold change vs veh, WDR75 / RFU, AHCTF1 / Fold change vs veh, AHCTF1 / RFU, TFRC / Fold change vs veh, TFRC / RFU, ZDHHC17 / Fold change vs veh, ZDHHC17 / RFU, NOM1 / Fold change vs veh, NOM1 / RFU, ARL8B / Fold change vs veh, ARL8B / RFU, ZBTB11 / Fold change vs veh, ZBTB11 / RFU, TAMM41 / Fold change vs veh, TAMM41 / RFU, KIAA1704 /// LOC100996395 / Fold change vs veh, KIAA1704 /// LOC100996395 / RFU, ING1 / Fold change vs veh, ING1 / RFU, TRMT61B / Fold change vs veh, TRMT61B / RFU, FUBP3 / Fold change vs veh, FUBP3 / RFU, TP53 / Fold change vs veh, TP53 / RFU, TNKS2 / Fold change vs veh, TNKS2 / RFU, ZFP14 / Fold change vs veh, ZFP14 / RFU, ACTR2 / Fold change vs veh, ACTR2 / RFU, PPP3R1 / Fold change vs veh, PPP3R1 / RFU, PIK3R1 / Fold change vs veh, PIK3R1 / RFU, HNRNPA1 / Fold change vs veh, HNRNPA1 / RFU, RNF170 / Fold change vs veh, RNF170 / RFU, ZNF28 / Fold change vs veh, ZNF28 / RFU, RNGTT / Fold change vs veh, RNGTT / RFU, OGT / Fold change vs veh, OGT / RFU, BRD1 / Fold change vs veh, BRD1 / RFU, MARS / Fold change vs veh, MARS / RFU, ZNF655 / Fold change vs veh, ZNF655 / RFU, FAHD1 / Fold change vs veh, FAHD1 / RFU, BDP1 / Fold change vs veh, BDP1 / RFU, LRRCC1 / Fold change vs veh, LRRCC1 / RFU, ARID1A / Fold change vs veh, ARID1A / RFU, ZNF146 / Fold change vs veh, ZNF146 / RFU, ZNF330 / Fold change vs veh, ZNF330 / RFU, GPN3 / Fold change vs veh, GPN3 / RFU, C9orf123 / Fold change vs veh, C9orf123 / RFU, N4BP2L2 / Fold change vs veh, N4BP2L2 / RFU, ARFIP1 / Fold change vs veh, ARFIP1 / RFU, FAM179B / Fold change vs veh, FAM179B / RFU, BCL10 / Fold change vs veh, BCL10 / RFU, UHRF1BP1L / Fold change vs veh, UHRF1BP1L / RFU, BET1 / Fold change vs veh, BET1 / RFU, CNOT2 / Fold change vs veh, CNOT2 / RFU, ZNF268 / Fold change vs veh, ZNF268 / Fold change vs veh, ZNF507 / RFU, DGCR2 / Fold change vs veh, DGCR2 / RFU, WDSUB1 / Fold change vs veh, WDSUB1 / Fold change vs veh, HSP90B1 /// MIR3652 / RFU, ADSS / Fold change vs veh, ADSS / RFU, GK / Fold change vs veh, GK / RFU, ZNF148 / Fold change vs veh, ZNF148 / RFU, TAF9 / Fold change vs veh, TAF9 / RFU, SLC1A5 / Fold change vs veh, SLC1A5 / RFU, SLMO2 / Fold change vs veh, SLMO2 / RFU, ABCC4 / Fold change vs veh, ABCC4 / RFU, LOC101060439 /// RAP1B / Fold change vs veh, LOC101060439 /// RAP1B / RFU, RFX7 / Fold change vs veh, RFX7 / RFU, GTPBP10 / Fold change vs veh, GTPBP10 / RFU, CNEP1R1 / Fold change vs veh, CNEP1R1 / RFU, BIVM-ERCC5 /// ERCC5 / Fold change vs veh, BIVM-ERCC5 /// ERCC5 / RFU, ILF3 / Fold change vs veh, ILF3 / RFU 11762660_at / Fold change /veh 11762660_at / RFU VCAN (11757783_s_at) / Fold change /veh VCAN (11757783_s_at) / RFU DDX43 (11728927_at) / Fold change /veh DDX43 (11728927_at) / RFU KRT8 (11758188_x_at) / Fold change /veh KRT8 (11758188_x_at) / RFU NKD1 (11759106_at) / Fold change /veh NKD1 (11759106_at) / RFU SRD5A1 (11742802_a_at) / Fold change /veh SRD5A1 (11742802_a_at) / RFU TPSAB1 /// TPSB2 (11721975_s_at) / Fold change /veh TPSAB1 /// TPSB2 (11721975_s_at) / RFU GSTM3 (11746129_a_at) / Fold change /veh GSTM3 (11746129_a_at) / RFU IL23R (11737362_x_at) / Fold change /veh IL23R (11737362_x_at) / RFU TMEM51 (11727254_a_at) / Fold change /veh TMEM51 (11727254_a_at) / RFU PIWIL2 (11732686_x_at) / Fold change /veh PIWIL2 (11732686_x_at) / RFU ORM1 (11744905_x_at) / Fold change /veh ORM1 (11744905_x_at) / RFU CCDC152 (11743942_at) / Fold change /veh CCDC152 (11743942_at) / RFU ECM1 (11717891_a_at) / Fold change /veh ECM1 (11717891_a_at) / RFU IL23R (11748794_a_at) / Fold change /veh IL23R (11748794_a_at) / RFU TNFAIP8L3 (11732012_x_at) / Fold change /veh TNFAIP8L3 (11732012_x_at) / RFU MBOAT4 (11741988_at) / Fold change /veh MBOAT4 (11741988_at) / RFU 11764193_at / Fold change /veh 11764193_at / RFU TMEM53 (11763286_at) / Fold change /veh TMEM53 (11763286_at) / RFU MAGEB2 (11727129_at) / Fold change /veh MAGEB2 (11727129_at) / RFU TMEM200A (11744735_a_at) / Fold change /veh TMEM200A (11744735_a_at) / RFU CCDC152 (11751479_a_at) / Fold change /veh CCDC152 (11751479_a_at) / RFU FAM211A (11726209_a_at) / Fold change /veh FAM211A (11726209_a_at) / RFU RGS16 (11746705_a_at) / Fold change /veh RGS16 (11746705_a_at) / RFU VCAN (11755009_s_at) / Fold change /veh VCAN (11755009_s_at) / RFU RHOB (11743442_s_at) / Fold change /veh RHOB (11743442_s_at) / RFU RGS16 (11720943_a_at) / Fold change /veh RGS16 (11720943_a_at) / RFU RGS16 (11720944_at) / Fold change /veh RGS16 (11720944_at) / RFU, VPS4B / Fold change vs veh, VPS4B / RFU, CREB1 / Fold change vs veh, CREB1 / RFU, DNAJC13 / Fold change vs veh, DNAJC13 / RFU, GNAQ / Fold change vs veh, GNAQ / RFU, CDK5R1 / Fold change vs veh, CDK5R1 / RFU, ZRANB3 / Fold change vs veh, ZRANB3 / RFU, CUL4A / Fold change vs veh, CUL4A / RFU, CCNY / Fold change vs veh, CCNY / RFU, UFL1 / Fold change vs veh, UFL1 / RFU, COG3 / Fold change vs veh, COG3 / RFU, DIAPH2 / Fold change vs veh, DIAPH2 / RFU, SKA2 / Fold change vs veh, SKA2 / RFU, AFF3 / Fold change vs veh, AFF3 / RFU, LMF1 / Fold change vs veh, LMF1 / RFU, IPO11 / Fold change vs veh, IPO11 / RFU, DFFB / Fold change vs veh, DFFB / RFU, FOXP1 / Fold change vs veh, FOXP1 / RFU, CARD8 / Fold change vs veh, CARD8 / RFU, STRN3 / Fold change vs veh, STRN3 / RFU, ADK / Fold change vs veh, ADK / RFU, RASSF2 / Fold change vs veh, RASSF2 / RFU, WIPF1 / Fold change vs veh, WIPF1 / RFU, LARP1B / Fold change vs veh, LARP1B / RFU, RASA1 / Fold change vs veh, RASA1 / RFU, RB1 / Fold change vs veh, RB1 / RFU, PPFIA1 / Fold change vs veh, PPFIA1 / RFU, MAT2A / Fold change vs veh, MAT2A / RFU, CCT5 / Fold change vs veh, CCT5 / RFU, WDR92 / Fold change vs veh, WDR92 / RFU, CUX1 / Fold change vs veh, CUX1 / RFU, TTC7A / Fold change vs veh, TTC7A / RFU, TMEM135 / Fold change vs veh, TMEM135 / RFU, DEPTOR / Fold change vs veh, DEPTOR / RFU, CPM / Fold change vs veh, CPM / RFU, DNAJB6 / Fold change vs veh, DNAJB6 / RFU, CACNA2D3 / Fold change vs veh, CACNA2D3 / RFU, DTX4 / Fold change vs veh, DTX4 / RFU, TFCP2 / Fold change vs veh, TFCP2 / RFU, GMCL1 /// GMCL1P1 / Fold change vs veh, GMCL1 /// GMCL1P1 / RFU, AEBP2 / Fold change vs veh, AEBP2 / RFU, SNHG1 /// SNORD22 /// SNORD25 /// SNORD26 /// SNORD27 /// SNORD28 /// SNORD29 /// SNORD31 / Fold change vs veh, SNHG1 /// SNORD22 /// SNORD25 /// SNORD26 /// SNORD27 /// SNORD28 /// SNORD29 /// SNORD31 / Fold change (Aza/veh), C12orf56 (ProbeSet 11735607_a_at) / Fold change (ACY-1035/veh), C12orf56 (ProbeSet 11735607_a_at) / Fold change (Aza/veh), FGFR1OP (ProbeSet 11751329_s_at) / Fold change (ACY-1035/veh), FGFR1OP (ProbeSet 11751329_s_at) / Fold change (Aza/veh), VPS36 (ProbeSet 11739960_a_at) / Fold change (ACY-1035/veh), VPS36 (ProbeSet 11739960_a_at) / RFU SYPL1 (11715823_x_at) / Fold change /veh SYPL1 (11715823_x_at) / RFU IGFBP7 (11715501_s_at) / Fold change /veh IGFBP7 (11715501_s_at) / RFU REEP3 (11722064_at) / Fold change /veh REEP3 (11722064_at) / RFU IGLL1 (11728026_x_at) / Fold change /veh IGLL1 (11728026_x_at): dose or concentration left out as unconfirmed
Conditions: MV-4-11 cells, 48 hours

## Nc1ccc(-c2cccs2)cc1NC(=O)c1ccc2c(c1)cc(C1CC1)n2CCN1CCOCC1 [ACY-1035]
  RFU C10orf10 (11716522_x_at): 43.57 RFU
